Biological target: T1, human EGFR (Homo sapiens, UniProt P00533)
T1 construct: purchased Sigma E-2645; host or cells: A431 human carcinoma cells (natural source)
Assay: EGFR autophosphorylation, EGFR [pY845] PSSA ELISA
Type: biochemical
Conditions: purified human EGFR, 1 uM ATP, 30 minutes at 30° C.; FIG. 16

T1 sequence (P00533 25-1210): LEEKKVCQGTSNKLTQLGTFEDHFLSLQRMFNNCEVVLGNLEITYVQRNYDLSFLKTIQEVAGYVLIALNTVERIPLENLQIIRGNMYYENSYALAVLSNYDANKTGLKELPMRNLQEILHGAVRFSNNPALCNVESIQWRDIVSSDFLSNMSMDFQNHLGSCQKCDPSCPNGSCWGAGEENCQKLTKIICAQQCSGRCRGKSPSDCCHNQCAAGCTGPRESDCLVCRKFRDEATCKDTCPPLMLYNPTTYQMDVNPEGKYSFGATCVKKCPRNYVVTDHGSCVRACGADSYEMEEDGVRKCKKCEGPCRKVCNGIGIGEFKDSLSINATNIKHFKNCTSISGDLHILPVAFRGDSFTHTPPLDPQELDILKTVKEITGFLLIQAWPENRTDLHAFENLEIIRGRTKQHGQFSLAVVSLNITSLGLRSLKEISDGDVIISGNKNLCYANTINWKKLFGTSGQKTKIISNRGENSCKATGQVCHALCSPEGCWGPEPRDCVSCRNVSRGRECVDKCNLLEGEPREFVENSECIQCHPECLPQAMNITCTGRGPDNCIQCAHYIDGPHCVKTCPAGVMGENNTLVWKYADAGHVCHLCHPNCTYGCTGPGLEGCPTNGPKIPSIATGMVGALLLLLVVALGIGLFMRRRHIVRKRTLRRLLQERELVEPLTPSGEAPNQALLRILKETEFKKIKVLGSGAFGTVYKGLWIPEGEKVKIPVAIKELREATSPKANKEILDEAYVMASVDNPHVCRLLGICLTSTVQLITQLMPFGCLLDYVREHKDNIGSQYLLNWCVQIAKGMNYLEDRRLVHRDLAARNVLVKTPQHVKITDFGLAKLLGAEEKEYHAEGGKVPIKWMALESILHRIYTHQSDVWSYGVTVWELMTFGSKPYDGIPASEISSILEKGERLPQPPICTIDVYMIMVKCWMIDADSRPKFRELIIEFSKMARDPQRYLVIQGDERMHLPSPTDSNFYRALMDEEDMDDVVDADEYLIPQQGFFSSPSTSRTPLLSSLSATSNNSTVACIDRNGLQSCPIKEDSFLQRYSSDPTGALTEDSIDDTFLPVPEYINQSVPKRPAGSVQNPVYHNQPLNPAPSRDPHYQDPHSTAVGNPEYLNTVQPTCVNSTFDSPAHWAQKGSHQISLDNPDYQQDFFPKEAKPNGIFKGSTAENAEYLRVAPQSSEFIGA

EGFR [pY845] phosphorylation (autophosphorylation): inhibition of that activity
Structure (SMILES): CNc1cc2c(Nc3cccc(Br)c3)ncnc2cn1 [PD158780]

Reference: US7888050B2, “Method for quantifying phosphokinase activity on proteins” (Life Technologies Corporation, priority 2000, dated 2011)
